Experimental data taken from ChEMBL document CHEMBL1201862, “PubChem BioAssay data set” (2004).
The source made the active and inactive calls.

Assays:
Caspase-7 = Caspase-7 (Homo sapiens, UniProt P55210); assay: human caspase-7 inhibitors, dose response, selectivity assay for caspase-6 inhibitor project, biochemical, DEVD-R110 fluorescence, cherry-pick (AID 743295)
Caspase-6 = target: T1, Caspase-6 (Homo sapiens, UniProt P55212); assay: human caspase-6 inhibitors, dose response, biochemical, VEID-R110 fluorescence, cherry-pick (AID 720632)
T1 sequence (P55212 whole entry): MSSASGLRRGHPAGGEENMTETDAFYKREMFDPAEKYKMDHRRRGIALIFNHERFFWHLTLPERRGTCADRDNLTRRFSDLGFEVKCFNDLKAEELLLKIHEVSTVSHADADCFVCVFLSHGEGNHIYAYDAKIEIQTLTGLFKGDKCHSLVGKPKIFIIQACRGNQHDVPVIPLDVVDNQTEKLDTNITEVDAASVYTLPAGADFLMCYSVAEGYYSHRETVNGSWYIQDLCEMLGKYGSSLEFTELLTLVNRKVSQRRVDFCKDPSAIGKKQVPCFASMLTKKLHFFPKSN

[1] = Late stage assay provider results from the probe development effort to identify selective inhibitors of heat shock protein 90 (HSP90): Absorbance-based cell proliferation assay in MCF7 cells.; type: functional
[2] = Late stage assay provider results from the probe development effort to identify selective inhibitors of heat shock protein 90 (HSP90): Absorbance-based cell proliferation assay in SKBR3 cells.; type: functional; conditions: SK-BR-3
[3] = target: T2, Nuclear receptor subfamily 0 group B member 1 (Homo sapiens, UniProt P51843); type: functional, cell-based;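 also: HEK293T cells transfected with SF-1 and DAX-1 plus StAR promoter luciferase reporter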
T2 sequence (P51843 whole entry): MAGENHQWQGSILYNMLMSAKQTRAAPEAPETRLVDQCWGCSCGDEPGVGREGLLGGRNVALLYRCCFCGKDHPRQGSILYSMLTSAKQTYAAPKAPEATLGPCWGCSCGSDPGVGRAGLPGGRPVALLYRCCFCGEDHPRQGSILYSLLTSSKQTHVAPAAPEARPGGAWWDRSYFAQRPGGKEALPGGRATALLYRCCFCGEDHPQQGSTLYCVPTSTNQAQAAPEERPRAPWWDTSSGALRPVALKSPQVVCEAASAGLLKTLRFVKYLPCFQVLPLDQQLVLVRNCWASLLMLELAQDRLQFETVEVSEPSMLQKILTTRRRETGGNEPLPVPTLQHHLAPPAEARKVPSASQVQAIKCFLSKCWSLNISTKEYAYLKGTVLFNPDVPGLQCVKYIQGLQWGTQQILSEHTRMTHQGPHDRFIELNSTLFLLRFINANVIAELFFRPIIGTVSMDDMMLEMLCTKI

cells [4] = type: functional, cell-based
cells [5] = type: functional, cell-based; remark: listed apart in the source
HEK293 [6] = assay: cells; conditions: Homo sapiens
HEK293 [7] = assay: cells; conditions: Homo sapiens; remark: listed apart in the source
[8] = DNA binding of candidate compounds, dose response, artefact control for RAD54 inhibitor project, biochemical, fluorescence polarization, cherry-pick (AID 651673); type: functional
[9] = target: T3, DNA repair and recombination protein RAD54-like (Homo sapiens, UniProt Q92698); assay: inhibitors of human RAD54 branch migration, confirmation, biochemical, fluorescence, cherry-picked samples, dose series (AID 651657); type: functional
T3 sequence (Q92698 whole entry): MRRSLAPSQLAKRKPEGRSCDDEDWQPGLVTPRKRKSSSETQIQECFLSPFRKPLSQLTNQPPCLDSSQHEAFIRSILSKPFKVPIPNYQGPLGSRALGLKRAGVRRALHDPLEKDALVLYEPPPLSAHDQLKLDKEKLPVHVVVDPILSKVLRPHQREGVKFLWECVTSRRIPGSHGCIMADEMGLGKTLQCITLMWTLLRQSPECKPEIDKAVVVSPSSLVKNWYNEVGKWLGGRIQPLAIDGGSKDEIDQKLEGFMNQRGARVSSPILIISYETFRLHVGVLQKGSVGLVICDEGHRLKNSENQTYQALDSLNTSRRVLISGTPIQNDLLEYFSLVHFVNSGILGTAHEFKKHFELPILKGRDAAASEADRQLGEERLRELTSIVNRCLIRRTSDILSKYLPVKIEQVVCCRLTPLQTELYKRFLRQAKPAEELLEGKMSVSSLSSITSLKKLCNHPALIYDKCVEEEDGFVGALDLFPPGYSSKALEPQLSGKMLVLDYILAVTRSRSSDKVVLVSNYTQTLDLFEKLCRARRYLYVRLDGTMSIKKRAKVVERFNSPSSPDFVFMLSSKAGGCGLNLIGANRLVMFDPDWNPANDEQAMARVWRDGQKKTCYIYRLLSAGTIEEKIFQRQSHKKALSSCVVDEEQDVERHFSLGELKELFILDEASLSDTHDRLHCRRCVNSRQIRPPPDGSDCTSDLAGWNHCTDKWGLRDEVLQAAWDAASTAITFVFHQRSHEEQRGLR

cells [10] = type: functional, cell-based; remark: listed apart in the source
INS1 = assay: beta cell apoptosis inhibitors, cytokine rescue, dose response, luminescence, retest (AID 449756); type: functional, cell-based; conditions: Rattus norvegicus, INS1;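 also: cell death triggered by IL-1 beta plus TNF-alpha plus IFN-gamma mixture; protective hits raise ATP signal compared with cytokine alone wells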
[11] = target: SWI/SNF-related matrix-associated actin-dependent regulator of chromatin subfamily A member 2 (Homo sapiens, UniProt P51531); assay: Luminescence-based cell-based high throughput dose response assay to identify activators of the function of SWI/SNF related, matrix associated, actin dependent regulator of chromatin, subfamily a, member 2 (SMARCA2, BRM).; type: functional
[12] = target: T4, DNA repair protein RAD52 homolog (Homo sapiens, UniProt P43351); type: functional, biochemical
T4 sequence (P43351 whole entry): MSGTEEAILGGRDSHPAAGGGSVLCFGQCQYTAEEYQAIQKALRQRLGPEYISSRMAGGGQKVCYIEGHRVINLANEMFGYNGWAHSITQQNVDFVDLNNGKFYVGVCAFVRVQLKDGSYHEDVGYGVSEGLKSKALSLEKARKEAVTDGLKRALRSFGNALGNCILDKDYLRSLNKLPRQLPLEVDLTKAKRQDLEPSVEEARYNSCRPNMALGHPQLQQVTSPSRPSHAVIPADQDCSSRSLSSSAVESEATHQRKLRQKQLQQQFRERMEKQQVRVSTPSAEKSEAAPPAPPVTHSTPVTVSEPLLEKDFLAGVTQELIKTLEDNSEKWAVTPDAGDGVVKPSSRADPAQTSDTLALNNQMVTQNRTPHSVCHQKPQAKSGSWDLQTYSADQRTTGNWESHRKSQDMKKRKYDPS

[13] = Counterscreen for activators of the function of SWI/SNF related, matrix associated, actin dependent regulator of chromatin, subfamily a, member 2 (SMARCA2, BRM): Luminescence-based cell-based high throughput dose response assay to identify non-selective compounds using the VP16 reporter assay.; type: functional
[14] = inhibitors of intracellular T. cruzi replication, confirmation, NIH3T3 host cells, beta-gal luminescence (AID 2044); type: functional, cell-based;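 also: intracellular parasites grown in NIH/3T3 mouse fibroblasts as host cells; luminescent beta-galactosidase reporter signal from transgenic T. cruzi replicating inside host cells; inhibitors lower the luminescence signal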
[15] = cytotoxicity toward NIH3T3 fibroblasts, dose response, counter-screen, cell-based, ATP luminescence, mouse fibroblasts (AID 2010); type: functional;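 also: cells exposed to compound for about 90 hours before reading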
[16] = target: T5, Short transient receptor potential channel 4 (Mus musculus, UniProt Q9QUQ5); assay: mouse TRPC4 channel inhibitors, dose response, cell-based, HEK293 TRPC4/mu-opioid, Fluo-4 calcium (AID 434942); type: functional;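 also: potency of inhibitors blocking the TRPC4 calcium response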
T5 sequence (Q9QUQ5 whole entry): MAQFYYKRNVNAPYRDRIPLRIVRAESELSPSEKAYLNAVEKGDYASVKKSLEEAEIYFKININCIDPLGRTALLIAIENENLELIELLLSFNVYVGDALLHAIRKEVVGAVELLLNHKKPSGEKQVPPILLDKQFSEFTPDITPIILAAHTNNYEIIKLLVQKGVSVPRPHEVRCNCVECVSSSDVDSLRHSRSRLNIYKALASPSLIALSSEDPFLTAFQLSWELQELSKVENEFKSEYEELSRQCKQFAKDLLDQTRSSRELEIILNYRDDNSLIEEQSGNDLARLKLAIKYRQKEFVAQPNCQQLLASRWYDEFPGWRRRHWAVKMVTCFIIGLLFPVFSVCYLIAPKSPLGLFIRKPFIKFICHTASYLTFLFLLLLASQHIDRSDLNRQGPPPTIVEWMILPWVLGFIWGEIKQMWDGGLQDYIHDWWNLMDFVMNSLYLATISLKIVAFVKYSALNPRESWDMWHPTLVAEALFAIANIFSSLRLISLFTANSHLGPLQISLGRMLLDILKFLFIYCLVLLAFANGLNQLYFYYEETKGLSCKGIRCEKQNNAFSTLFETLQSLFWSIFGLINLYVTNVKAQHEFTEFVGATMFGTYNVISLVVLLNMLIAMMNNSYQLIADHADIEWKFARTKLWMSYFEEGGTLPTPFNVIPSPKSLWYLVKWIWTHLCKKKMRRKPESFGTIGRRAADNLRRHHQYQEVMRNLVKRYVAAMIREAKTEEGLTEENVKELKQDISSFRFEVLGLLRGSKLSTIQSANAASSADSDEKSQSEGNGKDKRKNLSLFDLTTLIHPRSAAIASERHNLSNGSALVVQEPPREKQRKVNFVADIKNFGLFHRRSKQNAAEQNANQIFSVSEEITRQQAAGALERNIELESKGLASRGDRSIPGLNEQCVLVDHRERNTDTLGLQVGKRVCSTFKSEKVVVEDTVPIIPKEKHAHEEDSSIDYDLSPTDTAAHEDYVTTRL

Major prion protein = Major prion protein (Homo sapiens, UniProt P04156); type: functional, cell-based
cells [17] = assay: cells
cells [18] = type: functional, cell-based; conditions: HEK-CNG
Galanin receptor type 3 = Galanin receptor type 3 (Homo sapiens, UniProt O60755); assay: Fluorescence-based cell-based primary high throughput dose response assay to identify antagonists of the Galanin Receptor 3 (GalR3).; type: functional
[19] = target: Luciferin 4-monooxygenase (Photinus pyralis, UniProt P08659); assay: firefly luciferase enzyme inhibitors, dose response, biochemical, luminescence (AID 1891)
[20] = Luminescence Cell-Based Dose Confirmation HTS to Identify Inhibitors of Platelet Dense Granule Release. [Related pubchem assays: 1663 (Primary HTS), 1678 (Summary of Project)]; type: functional
Protein skinhead-1 = target: T6, Protein skinhead-1 (Caenorhabditis elegans, UniProt P34707); type: functional
T6 sequence (P34707 whole entry): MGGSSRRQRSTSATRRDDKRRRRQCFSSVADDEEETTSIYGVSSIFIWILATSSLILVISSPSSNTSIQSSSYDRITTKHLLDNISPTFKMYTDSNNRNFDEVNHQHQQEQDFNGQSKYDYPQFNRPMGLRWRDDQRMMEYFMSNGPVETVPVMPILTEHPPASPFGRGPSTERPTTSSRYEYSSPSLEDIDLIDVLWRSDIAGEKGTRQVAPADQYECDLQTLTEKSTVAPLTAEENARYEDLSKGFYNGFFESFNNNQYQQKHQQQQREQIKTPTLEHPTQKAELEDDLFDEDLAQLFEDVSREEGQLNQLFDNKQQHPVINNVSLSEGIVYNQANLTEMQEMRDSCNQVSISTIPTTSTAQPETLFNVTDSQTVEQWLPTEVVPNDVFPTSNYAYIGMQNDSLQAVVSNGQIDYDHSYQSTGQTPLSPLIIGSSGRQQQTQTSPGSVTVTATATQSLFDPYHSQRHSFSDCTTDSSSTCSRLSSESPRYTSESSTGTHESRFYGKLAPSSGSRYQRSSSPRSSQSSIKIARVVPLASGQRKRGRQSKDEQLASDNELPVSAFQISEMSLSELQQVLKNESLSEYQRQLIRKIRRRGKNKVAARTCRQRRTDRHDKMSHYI

[21] = inhibitors of SNCA 5'UTR-driven reporter translation, confirmation, H4 neuroglioma cells, luminescence (AID 1988); type: functional, cell-based
[22] = Luminescence Cell-Based Dose Response HTS to Identify Inhibitors of 5'UTR Stem-Loop Driven Prion Protein mRNA Translation in H4 Neuroglioblastoma Cells. [Related pubchem assays: 1827 (Project Summary), 1813 (Primary HTS)]; type: functional

SMILES: O=C(Nc1ccc(S(=O)(=O)Nc2cnc3ccccc3n2)cc1)c1ccc(Cl)c([N+](=O)[O-])c1
- AC50 (Caspase-7): > 70 µM (inactive)
- AC50 (Caspase-6): 905 nM (active)

SMILES: N#Cc1cc2cc(OCCc3ccc(F)cc3)ccc2oc1=O
- IC50 [1]: 96.5 µM (inactive)
- IC50 [2]: 16.9 µM (inactive)

SMILES: O=C(/C=C\Nc1ccccc1Br)c1ccc2c(c1)OCO2
- IC50 [3]: > 92.6 nM (active)
- IC50 (cells [4]): > 67.5 µM (inactive)

SMILES: OCCCNc1c2ccccc2nc2ccccc12
- EC50 (cells [5]): > 350 µM (not active)
- EC50 (HEK293 [6]): > 2.21 µM (active)
- EC50 (HEK293 [7]): > 59.7 µM (inactive)
- AC50 [8]: 55.2 µM (active)
- AC50 [9]: 3.37 µM (active)
- EC50 (cells [10]): > 350 µM (not active)
- AC50 (INS1): 2.44 µM (active)
- EC50 [11]: > 3.38 µM (active)
- AC50 [12]: 3.08 µM (active)
- EC50 [13]: > 91.1 µM (inactive)
- EC50 [14]: 266 nM (active)
- EC50 [15]: 7.34 µM (active)
- EC50 [16]: 6.68 µM (active)

SMILES: CC(=O)c1ccc(CCCCCCCCCC(=O)O)s1
- IC50 (Major prion protein): 5.71 µM (active)
- IC50 (cells [17]): > 138 µM (inactive)

SMILES: CCOC(=O)c1c(O)nc(C)c(Cl)c1O
- EC50 (cells [18]): > 29.9 µM (inactive)
- IC50 (Galanin receptor type 3): > 29.9 µM (inactive)

SMILES: COC(=O)CSc1nc(-c2ccccc2)nc2ccccc12
- IC50 (Major prion protein): 1.31 µM (active)
- IC50 (cells [17]): > 138 µM (inactive)

SMILES: Cc1ccc(N/C=C/C(=O)c2cccs2)cc1
- EC50 [19]: 1.17 µM (active)
- IC50 [3]: > 278 nM (active)
- EC50 [20]: 6.06 µM (active)
- IC50 (Protein skinhead-1): 39 µM (active)
- EC50 [21]: 9.77 µM (active)
- EC50 [22]: 9.4 µM (active)
- IC50 (cells [4]): > 67.5 µM (inactive)

SMILES: O=C(NCc1ccco1)c1coc(=O)c(Br)c1
- IC50 [1]: 4.8 µM (active)
- IC50 [2]: 27.8 µM (inactive)
